According to patent US20090036514A1, “Therapeutic effects of Bryostatins, Bryologs, and other related substances on Ischemia/stroke-induced memory impairment and brain injury” (priority 2007, published 2009):
Like-named read-outs stand apart in the source and are kept apart here.

Experiments:
[1] = tested on: cerebral ischemia-induced memory impairment; assay: water maze spatial learning and probe test after global ischemia (Example 2); type: in vivo, rat; conditions: for water maze spatial learning, ischemic with treatment vs. control rats: trained one week after last dose; for water maze spatial learning, ischemic with treatment vs. ischemic rats: treatment started 24 hours after hypoxia, bryostatin-1 20 μg/m^2 i.v. 2 doses/week 10 doses, MCDA 1.0 mg/kg i.p. daily 5 weeks
Method: Rats (male, Wistar, 200-225 g) were randomly divided into 6 groups (8 each) and housed for 1 week before experimentation. Transient or permanent restriction of cerebral blood flow and oxygen supply results in ischemic stroke. The global ischemia model used to induce vascular memory impairment was two-vessel occlusion combined with a short term systemic hypoxia. Ligation of the bilateral common carotid arteries was performed under anesthesia (pentobarbital, 60 mg/kg, i.p.). After a one-week recovery from the surgery, rats were exposed to 14-min hypoxia (5% oxygen in a glass jar). Control rats (sham operated and vehicle controls) were subjected to the same incision to isolate both common carotid arteries and to 14-min air (in the glass jar). Body temperature was kept at 37-37.5° C. using a heating light source during the surgical procedure and until the animals were fully recovered.
4-Methylcatechol-diacetic acid (MCDA, a potential NGF and BDNF booster) was administered at 1.0 mg/kg (i.p., daily for the same 5-week period) in separate groups of rats.
A visible platform test was given after the probe test.

[2] = tested on: cerebral ischemia/hypoxia-induced learning and memory impairment; assay: water maze spatial learning and memory after global cerebral ischemia/hypoxia (Example 3); type: in vivo, rat
Method: Global cerebral ischemia/hypoxia was induced in male Wistar rats (225-250 g) by permanently occluding the bilateral common carotid arteries, combined with about 14 minutes of low oxygen (about 5%). […] Spatial learning (2 trials/ day for 4 days) and memory (a probe test of 1 minute, 24 hours after the last trial) task was performed 9 days after the last dose. Overall, there was a significant difference between the groups (F3,255=31.856, p<0.001) and groups x trials (F21,255=1.648, p<0.05). Global cerebral ischemia impaired the spatial learning (ischemial vs. sham-operated F1,127=[…]).

[3] = humans; cited from earlier work
[4] = target: T1, PKCε (Homo sapiens, UniProt Q02156); conditions: cited from earlier work
T1 sequence (Q02156 1-737): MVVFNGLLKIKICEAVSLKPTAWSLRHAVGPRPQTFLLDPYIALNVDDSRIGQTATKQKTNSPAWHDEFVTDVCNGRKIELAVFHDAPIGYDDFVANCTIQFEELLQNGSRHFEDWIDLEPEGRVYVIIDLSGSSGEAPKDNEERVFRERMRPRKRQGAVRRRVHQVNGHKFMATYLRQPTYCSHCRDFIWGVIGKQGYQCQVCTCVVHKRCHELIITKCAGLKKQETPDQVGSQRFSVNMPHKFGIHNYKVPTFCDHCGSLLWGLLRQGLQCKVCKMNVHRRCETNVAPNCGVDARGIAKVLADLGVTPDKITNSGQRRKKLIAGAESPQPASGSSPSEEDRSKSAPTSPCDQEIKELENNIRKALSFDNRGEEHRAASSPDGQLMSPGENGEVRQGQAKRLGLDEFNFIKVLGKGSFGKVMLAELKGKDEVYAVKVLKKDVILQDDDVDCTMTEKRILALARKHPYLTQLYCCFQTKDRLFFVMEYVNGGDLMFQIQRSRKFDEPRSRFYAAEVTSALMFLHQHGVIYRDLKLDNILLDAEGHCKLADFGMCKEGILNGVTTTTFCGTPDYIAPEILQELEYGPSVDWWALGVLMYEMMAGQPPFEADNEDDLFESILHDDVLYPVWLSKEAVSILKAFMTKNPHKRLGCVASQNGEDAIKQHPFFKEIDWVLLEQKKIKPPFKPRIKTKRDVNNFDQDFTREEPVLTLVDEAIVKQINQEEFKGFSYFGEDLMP

[5] = tested on: PKC; conditions: K562 cells; cited from earlier work
[6] = tested on: cyclin dependent kinase 2 (Cdk2); conditions: at 5 ng/ml; cited from earlier work
[7] = tested on: murine leukemias and solid tumors; conditions: cited from earlier work
[8] = target: PKC; conditions: [3H]phorbol dibutyrate; read-out: Ki for binding; cited from earlier work
[9] = tested on: squamous cell carcinoma and melanoma; conditions: used topically; cited from earlier work
[10] = tested on: NCI 60 cell line screen; conditions: cited from earlier work
[11] = target: protein kinase C; conditions: (−)-enantiomer; cited from earlier work
[12] = target: PKC; conditions: A-ring bryologs; read-out: affinity for PKC; cited from earlier work
[13] = non-ischemic rats, same regimens

CCCC=CC=CC(=O)OC1C(=CC(=O)OC)CC2CC(C(C)O)OC(=O)CC(O)CC3CC(OC(C)=O)C(C)(C)C(O)(CC4CC(=CC(=O)OC)CC(C=CC(C)(C)C1(O)O2)O4)O3 (stereo not shown) [Bryostatin 1, bryostatin-1]
water maze spatial learning, compound-only vs. control rats [1, 13]: no differences
water maze spatial learning, ischemic with treatment vs. control rats ([1]; same regimens): did not differ statistically from the control rats
water maze spatial learning, ischemic with treatment vs. ischemic rats [1]: greatly improved the performance
target quadrant preference, Bryostatin-1 alone vs. sham-operated ([2]; 15 μg/m^2): no significant effects
spatial learning, Bryostatin-1 alone vs. sham-operated ([2]; 15 μg/m^2, 9 days after the last dose): did not affect the learning
memory retention test after ischemia ([2]; 15 μg/m^2, probe test 24 hours after last trial): effectively restored memory retention after ischemia to the level of the sham-operated rats
spatial learning impairment, Bryostatin-1+Ischemia vs. Ischemia ([2]; 15 μg/m^2 tail vein, 2 doses/week, 10 doses, from about 24 hours after ischemia, tested 9 days after last dose): restored
main adverse reaction [3]: myalgia

CCCCCC1CC1CC1CC1CCCCCCCC(=O)O (stereo not shown) [DCP-LA, 2-[(2-pentylcyclopropyl)methyl] cyclopropaneoctanoic acid]
concentration of maximal effect on PKCε activation [4]: 100 nM

C=C(C)C12C[C@@H](COC(=O)c3ccccc3)[C@@]34OC5(O[C@@H]1[C@@H]3C1O[C@]1(CO)[C@@H](O)[C@@]1(O)[C@H]4[C@@H](C(C)CCCCCC[C@H]5O)C(C)[C@@H]1OC(=O)c1ccccc1)O2 (stereo partly shown) [Gnidimacrin]
concentration acting as PKC activator [5]: ≈ 3 nM
inhibition of Cdk2 [6]: 100%
concentrations with potent antitumor activity [7]: 0.1 to 1 nM

CC1=C[C@]23C(=O)[C@@H](C=C(COC(=O)c4ccccc4)[C@@H](O)[C@]2(O)[C@H]1OC(=O)c1ccccc1)[C@H]1[C@@H](C[C@H]3C)C1(C)C [Ingenol 3,20-dibenzoate]
Ki [8]: 240 nM

C/C=C(/C)C(=O)O[C@H]1C(C)=C[C@]23C(=O)[C@@H](C=C(CO)[C@@H](O)[C@]12O)[C@H]1[C@@H](C[C@H]3C)C1(C)C [Ingenol-3-angelate]
antitumor activity [9]: possesses antitumor activity

CC1=CC[C@H](C)C(C)(C)[C@@H]1/C=C/C(C)=C/CC[C@@]1(CO)[C@H](CCCO)/C(=C(/C)C=O)CC[C@]1(C)O [Iripallidal]
GI50 (concentration required to inhibit growth by 50%) [10]: from micromolar to nanomolar range

Cc1ccc(OCC(=O)O)c(OCC(=O)O)c1 [MCDA, 4-Methylcatechol-diacetic acid]
target quadrant ratio in probe test, compound-only vs. control rats [1, 13]: no differences
water maze spatial learning, compound-only vs. control rats [1, 13]: no differences
target quadrant ratio in probe test, ischemic with treatment vs. control rats ([1]; same regimens): no differences
target quadrant ratio in probe test, ischemic with treatment vs. ischemic rats ([1]; same regimens): group differences
water maze spatial learning, ischemic with treatment vs. control rats ([1]; same regimens): remained significant
water maze spatial learning, ischemic with treatment vs. ischemic rats [1]: improved the learning of the ischemic rats

CCCCCCCCc1ccc2c3c(c[nH]c13)C[C@@H](CO)NC(=O)[C@H](C(C)C)N2C [Octylindolactam V]
EC50 [11]: 29 nM

CCCCCCCC(=O)OC1C(=CC(=O)OC)CC2CC(CO)OC(=O)CC(O)CCOC(C(C)(C)C)CC3CCOC(C=CC(C)(C)C1(O)O2)O3 (stereo not shown) [bryolog 3]
Ki [12]: 6.5 nM

CCCCCCCC(=O)OC1C(=CC(=O)OC)CC2CC(CO)OC(=O)CC(O)CCOC(c3ccccc3)CC3CCOC(C=CC(C)(C)C1(O)O2)O3 (stereo not shown) [bryolog 4]
Ki [12]: 2.3 nM

CCCCCCCC(=O)OC1C(=CC(=O)OC)CC2CC(CO)OC(=O)CC(O)CCOC(CCCc3ccc(Br)cc3)CC3CCOC(C=CC(C)(C)C1(O)O2)O3 (stereo not shown) [bryolog 5]
Ki [12]: 1.9 nM
